The values below are quoted from earlier work in patent US20090137633A1, “Stable pharmaceutical composition of rabeprazole” (priority 2003, published 2009).

Counter-ions that a name gives are not always drawn.

Series [1] addresses T1, gastric H^+ K^+ ATPase enzyme system (proton pump) (Homo sapiens, UniProt P20648).
T1 construct: at the secretory surface of the gastric parietal cell; host or cells: gastric parietal cell (in vivo)
The note with it: in vivo.

T1 sequence (P20648 whole entry): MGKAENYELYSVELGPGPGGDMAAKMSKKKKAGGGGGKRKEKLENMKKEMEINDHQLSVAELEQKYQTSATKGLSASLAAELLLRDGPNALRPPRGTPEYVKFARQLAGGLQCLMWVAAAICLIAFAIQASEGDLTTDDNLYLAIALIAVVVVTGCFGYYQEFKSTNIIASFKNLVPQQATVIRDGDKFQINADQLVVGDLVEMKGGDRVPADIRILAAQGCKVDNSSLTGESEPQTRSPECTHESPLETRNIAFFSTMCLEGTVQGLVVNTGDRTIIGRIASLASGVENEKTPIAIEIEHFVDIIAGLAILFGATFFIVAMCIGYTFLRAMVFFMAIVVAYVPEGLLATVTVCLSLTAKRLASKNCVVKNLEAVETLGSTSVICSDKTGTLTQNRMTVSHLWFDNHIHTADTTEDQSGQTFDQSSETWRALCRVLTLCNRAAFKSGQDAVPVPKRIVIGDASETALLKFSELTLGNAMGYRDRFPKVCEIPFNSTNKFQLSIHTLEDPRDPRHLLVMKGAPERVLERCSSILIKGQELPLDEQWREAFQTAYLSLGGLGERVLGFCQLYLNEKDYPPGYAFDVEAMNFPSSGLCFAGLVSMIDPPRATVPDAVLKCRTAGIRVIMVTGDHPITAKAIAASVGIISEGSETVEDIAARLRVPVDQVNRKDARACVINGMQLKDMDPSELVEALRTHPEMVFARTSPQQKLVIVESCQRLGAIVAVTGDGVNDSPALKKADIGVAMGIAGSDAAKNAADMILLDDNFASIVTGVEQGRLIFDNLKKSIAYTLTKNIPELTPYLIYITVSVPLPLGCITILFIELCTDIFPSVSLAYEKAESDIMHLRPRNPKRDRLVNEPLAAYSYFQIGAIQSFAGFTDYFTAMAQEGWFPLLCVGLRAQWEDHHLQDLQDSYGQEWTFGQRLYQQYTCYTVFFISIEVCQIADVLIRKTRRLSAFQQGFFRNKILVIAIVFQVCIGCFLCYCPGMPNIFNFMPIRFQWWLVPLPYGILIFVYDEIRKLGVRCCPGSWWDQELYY
T1 sequence (P51164 whole entry partner): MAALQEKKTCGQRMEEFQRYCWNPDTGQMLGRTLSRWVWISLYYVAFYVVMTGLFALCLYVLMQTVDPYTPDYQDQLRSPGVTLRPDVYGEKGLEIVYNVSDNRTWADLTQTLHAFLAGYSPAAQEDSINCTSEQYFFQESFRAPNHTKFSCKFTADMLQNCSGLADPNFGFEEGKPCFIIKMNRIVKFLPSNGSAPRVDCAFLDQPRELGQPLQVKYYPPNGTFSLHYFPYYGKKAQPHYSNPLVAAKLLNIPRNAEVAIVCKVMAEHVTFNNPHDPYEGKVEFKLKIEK

For the compound `COCCCOc1ccnc(C[S+]([O-])c2nc3ccccc3[nH]2)c1C` (centres unmarked) [rabeprazole, 2-{[[4-(3-methoxypropoxy)-3-methyl]-2-pyridinyl]sulfinyl}-1H-benzimidazole sodium salt], the oral bioavalability result is “about 50%”. For the same compound, the “effect on intragastric pH in relation to cytochrome P450 2C19 genotype” value in series [1] is on record as “unaffected”.
